Measurements as given in US5221616A, “Prevention of spontaneous complement activation in mammalian biological fluids” (Quidel Corporation, priority 1988, dated 1993).

Target: T1, Factor B (Homo sapiens, UniProt P00751)
T1 construct: from tissue; host or cells: normal human EDTA plasma (EDTA-NHP)
Test: polyhydroxyl compounds in Buffer B mixed with EDTA-NHP: Bb fragment EIA
Type: biochemical
Conditions: final concentration 2M, 22° C. for 48 hr
Procedure: An extensive series of experiments were conducted to examine the ability of a large variety of polyhydroxyl compounds to prevent the spontaneous activation of C in EDTA-NHP during in vitro storage at 22° C for 48 hr. EDTA-NHP was mixed with an equal volume of Buffer B containing the polyhydroxyl compound to be tested. In these experiments Buffer B consisted of 40 mM EDTA and 30 IU sodium heparin/mL dissolved in deionized water, pH 7.2. The final concentration of polyhydroxyl compound dissolved in Buffer B varied for each compound due to differences in solubility. For each set of experiments, EDTA-NHP was also diluted and mixed with an equal volume of PBS (untreated control). […] This conclusion was based upon the iC3b percent protection values determined for each of the polyhydroxyl compounds (treated samples) as listed in FIG. 14.
The concentrations, expressed as μg analyte/mL, of a number of different activation products of spontaneous complement activation were measured in the course of these experiments. In an effort to normalize the data obtained from the various determinations so that the results from different assays could be directly compared to one another, a percent protection value was calculated for each analyte measured. […]

T1 sequence (P00751 26-764): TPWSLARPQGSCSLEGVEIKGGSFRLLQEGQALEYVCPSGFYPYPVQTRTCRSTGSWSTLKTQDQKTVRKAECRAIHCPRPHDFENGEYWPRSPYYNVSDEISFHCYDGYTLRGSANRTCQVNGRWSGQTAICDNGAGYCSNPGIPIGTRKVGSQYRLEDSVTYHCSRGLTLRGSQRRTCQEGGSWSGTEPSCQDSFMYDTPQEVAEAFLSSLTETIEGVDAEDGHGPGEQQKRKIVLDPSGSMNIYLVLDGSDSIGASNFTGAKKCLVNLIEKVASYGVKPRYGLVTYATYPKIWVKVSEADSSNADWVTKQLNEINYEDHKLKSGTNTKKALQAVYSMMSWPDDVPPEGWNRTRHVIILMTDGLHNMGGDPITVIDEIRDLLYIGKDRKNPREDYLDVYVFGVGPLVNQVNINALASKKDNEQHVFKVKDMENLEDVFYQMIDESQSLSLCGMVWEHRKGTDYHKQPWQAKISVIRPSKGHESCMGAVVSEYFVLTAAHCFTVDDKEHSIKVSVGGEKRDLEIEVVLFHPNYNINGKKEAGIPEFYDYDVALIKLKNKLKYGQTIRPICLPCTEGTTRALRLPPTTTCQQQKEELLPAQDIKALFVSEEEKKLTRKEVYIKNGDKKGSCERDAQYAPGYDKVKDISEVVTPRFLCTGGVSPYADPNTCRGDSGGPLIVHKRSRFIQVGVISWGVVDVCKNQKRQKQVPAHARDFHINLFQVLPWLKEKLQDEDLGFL

prevention of spontaneous activation of Factor B (Bb fragment production): completely prevented
SMILES: OC[C@H]1O[C@@H](O)[C@H](O)[C@@H](O)[C@@H]1O [β-D-glucose]
